Reference: US20250332139A1, “PS[…] AND THEIR USE FOR TREATING […] AND NE[…] DISORDERS” (Transcend Therapeutics, Inc., priority 2021, published 2025)
“And” between values parts separate entries of the source, which are not always exact repeats. Equal entries are not always repeated. Where two headings read alike, the source gives them in different places. Marks after values point to notes of the source that are not given here.

Legend:
Sprague Dawley rats = experiment: Forced Swim Test (FST); type: in vivo, rat
Source text: The Forced Swim Test (FST) is a classic, and the most used preclinical behavioral assay to screen compounds with antidepressant-like activity and has high predictive and face validity (Porsolt et al. (1977) Nature 266:730; Borsini and Meli (1988) Psychopharmacology 94:147). The premise of the FST is that when rats are placed into a cylinder filled with water, they will initially try to escape, but over time will become immobile. This increased immobility reflects behavioral despair, modeling a depressive-like state.
Forced Swim Test (FST): In the FST trial, rats were placed in a circular plexiglass container filled with water, with no means of escape. Water temperature was maintained at 22-25° C. and changed for every animal. After an acclimation period, rats were timed for inactivity (failure to struggle), activity, swim time and climbing time. Day 1 consisted of a 15 min acclimation trial, and Day 2 (24 h later) consisted of the 5 min test. A time sampling procedure was employed where animals were observed every 5 sec and scored for immobility, swimming, or climbing. Fluoxetine (10 mg/kg, IP, Sigma Aldrich) or 0.9% sterile saline vehicle (vehicle 3X group) were administered 23.5, 5, and 1 h before testing in the FST. […] The experimenter was blinded to treatment.
Forced Swim Test: In the FST trial, rats were placed in a circular plexiglass container filled with water, with no means of escape. Water temperature was maintained at 22-25° C. and changed for every animal. After an acclimation period, rats were timed for inactivity (failure to struggle), activity, swim time and climbing time. Day 1 consisted of a 15 min acclimation trial, and Day 2 (24 h later) consisted of the 5 min test. A time sampling procedure was employed where animals were observed every 5 sec and scored for immobility, swimming, or climbing. Fluoxetine (10 mg/kg, IP, Sigma Aldrich) or 0.9% sterile saline vehicle (vehicle 3X group) were administered 23.5, 5, and 1 h before testing in the FST. 2C-B (2.5, 10, or 20 mg/kg, IP, Cayman Chemical) or 0.9% saline vehicle (vehicle 1X group) were administered 30 min prior to FST testing. The experimenter was blinded to treatment.
Drug Treatment: Fluoxetine (10 mg/kg, IP, Sigma Aldrich) or 0.9% sterile saline vehicle were administered 23.5, 5, and 1 h before testing in the FST. […] Control animals received fluoxetine alone, methylone alone, or saline vehicle.
Forced Swim Test: In the FST trial, rats were placed in a circular plexiglass container filled with water, with no means of escape. Water temperature was maintained at 22-25° C. and changed for every animal. After an acclimation period, rats were timed for inactivity (failure to struggle), activity, swim time and climbing time. The experimenter and scorer were blind to treatment group. Day 1 consisted of a 15 min acclimation trial, and Day 2 (24 h later) consisted of the 5 min test. A time sampling procedure was employed where animals were observed every 5 sec and scored for immobility, swimming, or climbing.
The FST was performed and scored by an experimenter blind to treatment group according to standard protocols and based on a “modified FST” procedure (Slattery and Cryan (2012) Nat Protoc, 7:1009). Briefly, rats were placed in a circular plexiglass container (29.2 cm diameter, 49.5 cm height) filled with water to a depth of 30 cm so rats could not support themselves by touching the bottom of the tank. Water was maintained at 22-25° C. and was changed for every animal. Day 1 (Training) consisted of a 15 min acclimation trial, and Day 2 (Testing, 24 h later) consisted of the 5 min test. A time sampling procedure was employed where animals were observed every 5 seconds for the duration of the test session (60 counts or 5 minutes) and scored for immobility (defined as the failure to struggle), swimming (defined as a circular movement around the tank), or climbing (defined as an upwards escape behavior). […]

[1] = tested on: patients with PTSD or MDD; healthy subjects; experiment: Methylone case series (outpatient, CGI-S/CGI-I); type: in vivo, human
Procedure: CGI-S scale was also evaluated in a subset of patients from Cohort 2 post-treatment. Cohort 2 was evaluated for any observed or reported safety events following a single dosing session.
Clinical Global Impressions (CGI) scale includes 2 components: CGI-S(“severity”) and CGI-I (“improvement”).
No protected health information was disclosed, and no consent was obtained from patients for use of their archival data. Case narratives were systematically compiled from data collected as part of routine clinical work. Diagnoses were confirmed by an experienced clinician using semi-structured interviews. Baseline symptom severity was evaluated using the Clinical Global Impressions Scale-Severity (CGI-S). Symptom improvement was evaluated using the Clinical Global Impressions Scale-Improvement (CGI-I) following dosing. […] Because these case narratives were examined retrospectively from routine clinical care records, and not gathered prospectively in a research study, more specific validated rating scales for assessing PTSD symptoms were not available. Additionally, follow-up varied, with the length of follow-up ranging from one week (Case 2) to 15 years (Case 16).

rats = experiment: Reserpine-induced fibromyalgia model, von Frey test; type: in vivo, rat; details: methylone 15 mg/kg IP 30 min before vonFrey test, day 4
[2] = cited from earlier work

## CNC(C)C(=O)c1ccc2c(c1)OCO2 (stereo not drawn) [methylone, 3,4-methylenedioxy-N-methylcathinone]
Sprague Dawley rats; 15 mg/kg PO, single dose 2 hours before test, vs vehicle
  antidepressant-like effect in FST: significant antidepressant-like effect
Sprague Dawley rats; Example 8, Methylone 5 or 15 mg/kg IP
  climbing behavior: significantly increased climbing behavior
Sprague Dawley rats; methylone 5-30 mg/kg IP, 30 min before test
  climbing: only increased at the lowest dose
Sprague Dawley rats; methylone doses of 10 mg/kg or more
  effectiveness in FST: maximally effective
Sprague Dawley rats; mid and high doses of methylone IP, 30 min before test
  swimming: significantly increased swimming
Sprague Dawley rats; single dose 5, 10, 15, 20, 30 mg/kg IP 30 min before test, vs saline vehicle
  immobility: significantly reduced immobility
[1]; Cohort 1, 4 healthy subjects, total dose 790-870 mg in one session
  adverse effects: no adverse effects or after-effects were observed or reported
[1]; Cohort 2 (25 of 28 patients)
  patients with initial improvement at first methylone session: ~90%
[1]; Cohort 2, N = 28
  Number of cases with highest observed CGI-I 1: 11*
  Number of cases with highest observed CGI-I 2: 13
  Number of cases with highest observed CGI-I 3: 4
  Number of cases with highest observed CGI-I 4: 0
  Number of cases with highest observed CGI-I 5: 0
  Number of cases with highest observed CGI-I 6: 0
  Number of cases with highest observed CGI-I 7: 0
[1]; Example 5, 21 PTSD patients
  number of patients achieving a CGI-I of 1 or 2: 17 patients
[1]; Example 5, 21 PTSD patients, oral 100 to 1,020 mg
  tolerability: generally well tolerated
[1]; individual cases, Cohort 2
  Best CGI-S post-treatment: 1 and 4 and 2 and 3
  CGI-S max change from BL: −3 (4×) and −4
rats
  paw withdrawal thresholds: significantly increased paw withdrawal thresholds
[2]; 50 mg oral, N = 3
  AUC24 hr, Mean: (989, 4.5%) hr*μg/L
  AUCinf, Mean: (1063, 6.9%) hr*μg/L
  Cmax, Mean: (153.0, 18.9%) μg/L
  Half-life, Mean: (6.3, 15%) hr
[2]; 100 mg oral, N = 6
  AUC10 hr, Mean: (1586, 23.1%) hr*μg/L
  AUC24 hr, Mean: (2268, 20.4%) hr*μg/L
  AUCinf, Mean: (2444, 18.3%) hr*μg/L
  Cmax, Mean: (303.6, 45%) μg/L
  Half-life, Mean: (6.1, 23.3%) hr
  Tmax, Min-Max: (0.75-3) hr
[2]; 150 mg oral, N = 5
  AUC10 hr, Mean: (2236, 29.0%) hr*μg/L
  AUC24 hr, Mean: (3349, 36.5%) hr*μg/L
  AUCinf, Mean: (3777, 42.2%) hr*μg/L
  Cmax, Mean: (354.6, 30.7%) μg/L
  Half-life, Mean: (6.8, 23.3%) hr
  Tmax, Min-Max: (1.5-4) hr
[2]; 200 mg oral, N = 7
  AUC10 hr, Mean: (3310, 17.9%) hr*μg/L
  AUC24 hr, Mean: (4796, 23.2%) hr*μg/L
  AUCinf, Mean: (5267, 25.1%) hr*μg/L
  Cmax, Mean: (603.6, 20.6%) μg/L
  Half-life, Mean: (6.6, 15.1%) hr
  Tmax, Min-Max: (1-4) hr
